Counter-ions that a name gives are not always drawn.
Target: T1, H1 receptor (Cavia porcellus, UniProt P31389)
T1 construct: Strips of guinea pig ileum, 2 cm in length, were set up in an isolated organ bath; from tissue; host or cells: guinea pig ileum strips
Assay: guinea pig ileum screen (antagonism of histamine-induced contraction, pA2)
Assay type: cell-based
Conditions: isolated guinea pig ileum strips, histamine dose response, 20 minutes incubation
Experimental: It is based upon the phenomenon that histamine causes the contraction of guinea pig ileum. Antihistamine blocks this contraction. This test may be performed in the following manner:
Strips of guinea pig ileum, 2 cm in length, were set up in an isolated organ bath in tyrode's solution which had the following composition in […] (NaCl, 136.89; KCl, 2.68; CaCl2, 1.8; MgCl2, 1.05; NaH2 PO4, 0.42; NaHCO3, […] were measured isotonically (Grass FTO3C transducer coupled with silver springs) under one gram resting tension and recorded in a Grass polygraph recorder. Cumulative histamine dose response experiments were then performed before and after treatment of tissues with test compounds (20 minutes incubation). Dose ratios were determined graphically at ED50 response levels from the histamine dose response curves, and Schild plots (Arunlakshana, O. and Schild, H. O. Some quantitative uses of drug antagonists. Br. J. Pharmacol. Chemother. 14: 48-58, 1959) were constructed to determine the pA2 values using inverse regression line analysis (Finney, D. J. Statistical methods in biological assays. Hafner Press, New York, 1964). The pA2 is defined as the negative logarithm of the molar concentratrion of antagonist which would increase the ED50 value by […]. In some experiments, pA2 values were estimated according to the method described by van Rossum (Van Rossum, J. M., Cumulative dose-response curves: Technique for the making of dose-response curves in isolated organs and the evaluation of drug parameters. Arch. Int. Pharmacodyn. Ther. 143: 299-330, 1963) which uses the following relationship: pA2=-log ([B]/(dose ratio-1)), where [B] refers to the molar concentration of antagonists used. The test compounds were prepared in ethanol (0.1% v/v).

[1] = pA2 estimated by the method of Van Rossum
[2] = pA2 by the method of Schild (Schild plots)

T1 sequence (P31389 whole entry): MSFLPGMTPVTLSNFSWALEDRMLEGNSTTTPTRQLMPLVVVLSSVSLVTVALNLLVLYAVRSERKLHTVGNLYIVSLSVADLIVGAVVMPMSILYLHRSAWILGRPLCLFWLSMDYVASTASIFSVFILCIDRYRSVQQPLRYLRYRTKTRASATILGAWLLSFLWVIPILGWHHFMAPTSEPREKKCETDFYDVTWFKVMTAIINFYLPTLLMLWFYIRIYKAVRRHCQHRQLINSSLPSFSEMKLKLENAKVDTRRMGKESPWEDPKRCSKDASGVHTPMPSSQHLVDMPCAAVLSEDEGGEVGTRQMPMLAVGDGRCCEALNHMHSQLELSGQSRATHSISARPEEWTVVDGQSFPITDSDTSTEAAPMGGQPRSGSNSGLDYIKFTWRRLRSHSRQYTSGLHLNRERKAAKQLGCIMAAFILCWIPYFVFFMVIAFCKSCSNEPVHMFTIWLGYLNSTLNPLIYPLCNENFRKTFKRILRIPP

Row | SMILES | Kb [1] [nM] | Kb [2] [nM] | other results
1 | CCN(CC)C(=O)N1CCC(C(=O)c2nc3ccccc3n2Cc2ccc(F)cc2)CC1 [Example 6, 1-[[(4-Fluorophenyl)methyl]-1H-benzimidazol-2-yl][1-(N,N-diethylcarbamoyl)-4-piperidinyl]methanone] |  |  | pA2 value in the guinea pig ileum screen [1]: 7.7
2 | CC(=O)N1CCC(C(=O)c2nc3ccccc3n2Cc2ccc(F)cc2)CC1 [Example 7, 1-[[(4-Fluorophenyl)methyl]-1H-benzimidazol-2-yl-][1-(acetyl)-4-piperidinyl]methanone] | > 100 |  | 
3 | CC(C)(C)OC(=O)N1CCC(C(=O)c2nc3ccccc3n2Cc2ccc(F)cc2)CC1 [Example 2 Step a, 1-[[(4-Fluorophenyl)methyl]-1H-benzimidazol-2-yl][1-(t-butyloxycarbonyl)-4-piperidinyl]methanone] | > 100 |  | 
4 | O=C(c1nc2ccccc2n1Cc1ccc(F)cc1)C1CCN(C(=O)C(F)(F)F)CC1 [Example 8, 1-[[(4-Fluorophenyl)methyl]-1H-benzimidazol-2-yl][1-(trifluoroacetyl)-4-piperidinyl]methanone] | 10.2 |  | 
5 | O=C(O)CN1CCC(C(=O)c2nc3ccccc3n2Cc2ccc(F)cc2)CC1 [Example 4, 1-[[(4-Fluorophenyl)methyl]-1H-benzimidazol-2-yl][1-(carboxymethyl)-4-piperidinyl]methanone] | 2.34 |  | 
6 | CCOCCn1c(C(=O)C2CCN(C(=O)OC(C)(C)C)CC2)nc2ccccc21 [Example 1 Step a, 1-[[(2-Ethoxy)ethyl]-1H-benzimidazol-2-yl][1-(t-butyloxycarbonyl)-4-piperidinyl]methanone] | 603 |  | 
7 | CN1CCC(C(O)c2nc3ccccc3n2Cc2ccc(F)cc2)CC1 (centres unmarked) [Example 29, 1-[[(4-Fluorophenyl)methyl]-1H-benzimidazol-2-yl][1-methyl-4-piperidinyl]methanol] |  | 2.34 | 
8 | COC(=O)COCCN1CCC(C(=O)c2nc3ccccc3n2Cc2ccc(F)cc2)CC1 [Example 2, 1-[[(4-Fluorophenyl)methyl]-1H-benzimidazol-2-yl][1-(carbomethoxymethoxyethyl)-4-piperidinyl]methanone] |  | 1.78 | 
9 | CCOCCn1c(C(=O)C2CCN(CCc3ccc(OC)cc3)CC2)nc2ccccc21 [Example 1, 1-[[(2-Ethoxy)ethyl]-1H-benzimidazol-2-yl][1-[2-(4-methoxyphenyl)ethyl]-4-piperidinyl]methanone hydrochloride] | 0.407 |  | 
10 | O=C(CN1CCC(C(=O)c2nc3ccccc3n2Cc2ccc(F)cc2)CC1)Nc1nnn[nH]1 [Example 9, 1-[[(4-Fluorophenyl)methyl]-1H-benzimidazol-2-yl][1-(tetrazoleacetamide)-4-piperidinyl]methanone] |  | 2.4 | 
11 | CN1CCC(C(=O)c2nc3ccccc3n2Cc2ccc(F)cc2)CC1 [Example 28, 1[[(4-Fluorophenyl)methyl]-1H-benzimidazol-2-yl][1-methyl-4-piperidinyl]methanone] |  | 0.661 | 

From patent publication US5380731A, “Antiallergic compounds” (Merrell Dow Pharmaceuticals Inc., priority 1993, dated 1995)
